Legend:
[1] = Compound selectivity was assessed using vacuolar type proton ATPase from human kidney cortex (hK)
[2] = Compound selectivity was assessed using vacuolar type proton ATPase from human kidney cortex(hK)
[3] = Compound selectivity was assessed using vacuolar type proton ATPase from chicken adrenal glands (cAG); assay type: tissue-based, Adrenal gland
Homo sapiens [4] = organism: Homo sapiens; test: In vitro human osteoclast activity for bone resorption was assessed by ELISA assay; assay type: functional
Homo sapiens [5] = organism: Homo sapiens; test: Ability to inhibit bone resorption in human osteoclast obtained from giant cell tumors of bone; assay type: functional

IC50 [1] | IC50 [2] | IC50 [3] | IC50 (Homo sapiens [4]) | IC50 (Homo sapiens [5]) | Structure (SMILES)
2500 nM |  |  |  |  | CO/C(=C\C=C/c1cc2cc(Cl)c(Cl)cc2[nH]1)C(=O)NC1CC(C)(C)N(C)C(C)(C)C1
 | 6330 nM |  |  |  | CO/C(=C/C=C/c1cc2cc(Cl)c(Cl)cc2[nH]1)C(=O)NC1CC(C)(C)N(C)C(C)(C)C1
158 nM |  | 125 nM | 3.4 nM | 13.5 nM | CO/C(=C\C=C\c1cc2cc(Cl)c(Cl)cc2[nH]1)C(=O)NC1CC(C)(C)N(C)C(C)(C)C1
